Assay results from patent US9499568B2, “Heterocyclic compound and use thereof” (Takeda Pharmaceutical Company Limited, priority 2010, dated 2016).

system: MAP-induced hyperlocomotion in male ICR mice; experiment: Inhibition of methamphetamine (MAP)-induced hyperlocomotion; type: in vivo; settings: compound 10 mg/kg p.o. 60 min before MAP 2 mg/kg s.c., FIG. 1
Protocol: Male ICR mice were supplied by CLEA Japan, Inc (Japan). After arrival to the vivarium, animals were allowed a minimum of 1 week for acclimation. They were housed under a 12:12-h light/dark cycle in a temperature- and humidity-controlled laboratory and allowed food and water ad libitum.
A test compound was suspended in 0.5% methylcellulose in distilled water and orally administered (p.o.). Methamphetamine (Dainippon Sumitomo Pharma Co., Ltd.) was dissolved in saline and subcutaneously administered (s.c.). All drugs were dosed in a volume of 10 mL/kg body weight for mice.
The widely used animal models of psychosis have been the measurement of the extent of hyperlocomotion induced by psychostimulants (e.g., amphetamine, cocaine, methamphetamine, MK-801 and phencyclidine) in rodents (Psychopharmacology 1999, vol. 145: 237-250). 4 compounds (A, B, C, D) were tested for its ability to antagonize MAP-induced hyperlocomotion in mice. Male ICR mice were habituated in the locomotor chambers with infrared sensors (BrainScienceldea Co., Ltd. Japan) to the experiment. After the habituation, animals were treated with either vehicle or the compounds (10 mg/kg, p.o.), and MAP (2 mg/kg, s.c.) was administrated 60 min later. Locomotion activities were measured, and accumulated counts (120 min after administration of MAP) were calculated in each treatment group. All data were represented as means plus the standard errors of the means (n=3-9) and analyzed using Student's t-test with significance set at **P<0.01 and ***P<0.001 or Welch's t-test with significance set at ^$P<0.05, ^$$P<0.01 and ^$$$P<0.001.

| SMILES | inhibition of MAP-induced hyperlocomotion (accumulated locomotion counts 0-120 min) |
| --- | --- |
| O=S1(=O)CCN2C=CC=C(c3ccc(Oc4ccccc4)cc3)C2=N1 [A, 9-(4-phenoxyphenyl)-3,4-dihydropyrido[2,1-c][1,2,4]thiadiazine 2,2-dioxide] | significant inhibition |
| Cc1ccc(Oc2ccc(C3=CC=CN4CCS(=O)(=O)N=C34)cc2)cc1 [B, 9-[4-(4-methylphenoxy)phenyl]-3,4-dihydropyrido[2,1-c][1,2,4]thiadiazine 2,2-dioxide] | significant inhibition |
| CC1=CN2CCS(=O)(=O)N=C2C(c2ccc(OC3CCCCC3)cc2)=N1 [C, 9-[4-(cyclohexyloxy)phenyl]-7-methyl-3,4-dihydropyrazino[2,1-c][1,2,4]thiadiazine 2,2-dioxide] | significant inhibition |
| O=S1(=O)CCN2C=CC=C(c3ccc(OC4CCCCC4)cc3)C2=N1 [D, 9-[4-(cyclohexyloxy)phenyl]-3,4-dihydropyrido[2,1-c][1,2,4]thiadiazine 2,2-dioxide] | significant inhibition |
